# Measured values taken from US20260308691A1, “NOVEL USE OF AN INHIBITOR OF THE POLY-ADP RIBOSE POLYMERASE (PARP) IN THE TREATMENT OF CANCER” (TESARO, Inc., priority 2023, published 2026).
# pIC50: −log10 of the molar value. “Also recorded” adds a separate entry of the source.
# How the values were obtained:
# Assay type in all cases: cell-based, human
# [1] = tested on: Patient-derived organoids (PDOs), HNSCC and NSCLC; test: Cytotoxicity in patient-derived organoids (Cell titre glow dose-response curve); settings: for PDO response to niraparib compared with cisplatin: resistant and sensitive PDOs, 6 days
# Procedure: (§1) A multi-modal assay was developed to test tumour cell response to niraparib and the effects of the treatment on immune cells. The assay is illustrated in FIG. 1. […] After 5 to 7 days (according to the proliferation rate of each PDO), one plate is treated with different doses of niraparib and DMSO for cytotoxicity evaluation. The remaining plates, PDOs are treated with niraparib (1.4 μM), cisplatin (4.7 μM), DMSO or saline solution (control) for 7 days. Following the treatment period, the media from one plate/condition (i.e. one DMSO and one Niraparib-treated plate) is collected for exosomes isolation and analysis of DNA length and the PDOs are processed to extract RNA for RNAseq and qRT-PCR (see the details in the qRT-PCR analysis section). For both niraparib and cisplatin treated samples (and the respective controls) PDOs are collected from the remaining plates and, after washing out BME, are plated into low adherence 96 well plates in a 1 to 6 ratio with Peripheral Blood Mononuclear Cells (PBMCs) pre-stimulated for a total of 4 days using anti-CD3 in combination anti-CD28 (as costimulatory signal) antibodies. The PDOs are co-cultured for 48 h after which all the cells are collected, the not infiltrating immune cells are washed off and the rest is either digested to single cells or fixed and embedded as whole tissue. For flow cytometry analysis the single cells are blocked, stained with antibody mix, fixed, and run on a flow cytometer. For imaging, the embedded organoids are labelled with different antibodies, cleared, and imaged.
# PDOs are seeded as single cells at a certain density (according to their growth rate) in 15 μl BME/dome.
# 1 dome per well in 24-wells plate with 1 ml of complete media/each well. […] 150 μl of the solution is collected from each well and transferred to a 96 well plate for the reading performed with Clariostar Plus (BMG Labtech). […]
# PD-L1 = PD-L1 expression in PDO tumour cells cocultured with activated PBMC (flow cytometry and multiplex imaging); settings: resistant PDOs, co-cultured 48 h with activated PBMC
# Procedure: A multi-modal assay was developed to test tumour cell response to niraparib and the effects of the treatment on immune cells. The assay is illustrated in FIG. 1. […] After 5 to 7 days (according to the proliferation rate of each PDO), one plate is treated with different doses of niraparib and DMSO for cytotoxicity evaluation. The remaining plates, PDOs are treated with niraparib (1.4 μM), cisplatin (4.7 μM), DMSO or saline solution (control) for 7 days. Following the treatment period, the media from one plate/condition (i.e. one DMSO and one Niraparib-treated plate) is collected for exosomes isolation and analysis of DNA length and the PDOs are processed to extract RNA for RNAseq and qRT-PCR (see the details in the qRT-PCR analysis section). […]
# (§2) MACS buffer with mouse anti human CD3, CD8, CD4, CD56, CD226, CD45, TIGIT, PD1, PDL1, EpCAM, PVRIG, TIM3, CD96, CD14 and CD11b antibodies for one hour at 4° C. […] The cell-containing tubes are running on CytoFLEX (Beckman Coulter), and data analyzed with FlowJo software.
# Multiplex fluorescence imaging assay is performed on a single 6-micron cryosection of fixed-frozen PDOs. […]
# [2] = tested on: CD45 positive cells infiltrating PDOs; test: Flow cytometry of CD45 positive immune cells infiltrating PDOs after coculture with activated PBMC; settings: 48 h coculture
# Procedure: as §1
# After 48 h of co-culture, PDOs are collected. The non-infiltrating immune cells are separated with a cell strainer while the organoids and infiltrating immune cells reduced to single cell level. Live dead exclusion is performed incubating the cells with Zombie dye for 30 minutes at room temperature. Following a blocking step in MACS buffer and anti-human and mouse IgG, staining is performed in
# MACS buffer with mouse anti human CD3, CD8, CD4, CD56, CD226, CD45, TIGIT, PD1, PDL1, EpCAM, PVRIG, TIM3, CD96, CD14 and CD11b antibodies for one hour at 4° C. The cells are then fixed and DNA staining performed. The cell-containing tubes are running on CytoFLEX (Beckman Coulter), and data analyzed with FlowJo software.
# [3] = tested on: exosomal DNA (exoDNA) from PDOs; test: Length of DNA isolated from exosomes (exoDNA) of treated PDOs; settings: for exoDNA length, sensitive PDO HNX29: HNX29 (sensitive, representative), exosomes collected after 6 days, compared to control
# Procedure: as §1, with “The remaining plates, PDOs are treated with niraparib (1.4 μM), cisplatin (4.7 μM), DMSO or saline solution (control) for 7 days.” left out
# Exosomes are obtaining by a series of centrifugations and ultra-centrifugations at increasing speeds of the media collected from the PDO cultures. Each sample is split into two tubes for the ultracentrifugation (for subsequent protein and genomic analysis).
# DNA is extracted from exosomes via silica-membrane based nucleic acid purification by QIAamp Blood DNA extraction Kit (QIAGEN) and quantified by Qubit dsDNA HS kit. The Genomic DNA ScreenTape assay on the Agilent 4200 Tapestation system is used to assess the length of DNA and the R package bioanalyzeR exploited to obtain the DNA size distribution and number of molecules at different sizes. Part of the exosome DNA is sequenced using Oxford Nanopore Promethion for a drug treatment and a control experiment. For both samples, reads are then aligned to the human genome (hg38) using minimap2, and the following analyses performed. For every gene for which there are any aligned reads, the following is calculated: • Fragments per kilobase million (FPKM) as a normalised metric of representation of gene in the exosome dataset • The maximum fraction of total gene length that is covered by a single nanopore read. • The median fraction of total gene length that is covered by all nanopore reads that aligned to that gene • Coding and non-coding variants (for all bases for which there was a minimum depth of 20 reads) • Hypomethylation of CpG island of coding variants
# PD1 = test: Flow cytometry of PD1 expression on CD4 positive cells cocultured with PDOs; settings: niraparib-treated PDOs, 48 h coculture
# Procedure: as §1, with “The PDOs are co-cultured for 48 h after which all the cells are collected, the not infiltrating immune cells are washed off and the rest is either digested to single cells or fixed and embedded as whole tissue. For flow cytometry analysis the single cells are blocked, stained with antibody mix, fixed, and run on a flow cytometer. For imaging, the embedded organoids are labelled with different antibodies, cleared, and imaged.” left out
# as §2
# [4] = tested on: EpCAM positive cells of PDOs; test: Tumour cell viability by flow cytometry (live cells within EpCAM positive cells) after coculture with PBMC; settings: 1.4 μM niraparib or DMSO 7 days, 48 h coculture with PBMC
# Procedure: as §1, with “The PDOs are co-cultured for 48 h after which all the cells are collected, the not infiltrating immune cells are washed off and the rest is either digested to single cells or fixed and embedded as whole tissue. For flow cytometry analysis the single cells are blocked, stained with antibody mix, fixed, and run on a flow cytometer. For imaging, the embedded organoids are labelled with different antibodies, cleared, and imaged.” left out
# Cell viability is evaluated by flow cytometry analysis performed after 48 h of co-culture subsequent to 7 days of treatment with 1.4 μM Niraparib or DMSO (as control). […]
compound,measurement,setting,value
N.N.[Cl][Pt][Cl] [cisplatin],PDO response to niraparib compared with cisplatin,[1],similar
same,PD-L1 expression in cisplatin-treated tumour cells,PD-L1; vs saline,upregulation of PDL1 expression
same,"infiltration of CD45 positive cells, cisplatin-treated resistant PDOs","[2]; PDOs classified as resistant to niraparib, cisplatin 4.7 μM 7 days, vs saline",higher infiltration of CD45 pos cells; also recorded: increased infiltration of CD45 positive cells
same,"infiltration of CD45 positive cells, cisplatin-treated sensitive PDOs","[2]; PDOs classified as sensitive to niraparib, cisplatin 4.7 μM 7 days, vs saline",decreased infiltration with CD45 positive cells
same,"exoDNA length, sensitive PDO HNX29",[3],higher
same,"exoDNA length, cisplatin-treated PDOs more resistant to niraparib","[3]; PDOs more resistant to niraparib, cisplatin-treated",shorter
NC(=O)c1cccc2cn(-c3ccc([C@@H]4CCCNC4)cc3)nc12 [niraparib],pIC50,"[1]; Homo sapiens, 168 h, read-out: IC50 threshold (inflection point) above which increased infiltration of CD45 positive cells is observed, PDOs from multiple tumour types, dose-response curve after 7 days of treatment",5.92 to 6.00
same,PDO response to niraparib compared with cisplatin,[1],similar
same,PD-L1 expression in niraparib-treated tumour cells,PD-L1; vs DMSO,"upregulation of PD-L1 expression; also recorded: PDL1 upregulation; also recorded: high levels of PD-L1, or PD-L1 upregulation"
same,"infiltration of CD45 positive cells, niraparib-treated resistant PDOs","[2]; resistant PDOs (high niraparib IC50), niraparib 1.4 μM 7 days, vs DMSO",increased in resistant samples; also recorded: increased infiltration of CD45 positive cells; also recorded: increased levels of CD45 positive cell infiltration
same,"infiltration of CD45 positive cells, niraparib-treated sensitive PDOs","[2]; sensitive PDOs (low niraparib IC50), niraparib 1.4 μM 7 days, vs DMSO",reduced in sensitive samples; also recorded: decreased infiltration with CD45 positive cells
same,correlation of exoDNA length with niraparib IC50,[3]; 6 HNSCC and 3 NSCLC PDOs,exoDNA length correlates with the niraparib IC50
same,"exoDNA length, sensitive PDO HNX29",[3],higher
same,threshold ratio (niraparib/DMSO) of exosomal DNA length,"[3]; ROC curve vs IC50 value, 10 PDOs, sensitivity 100%, specificity 67%",1.1
same,"exoDNA length, niraparib-treated, versus niraparib sensitiveness",[3]; compared to exoDNA from DMSO-treated counterpart,increased with the increase of niraparib sensitiveness
same,"exoDNA length, niraparib-treated more resistant PDOs","[3]; resistant PDOs, compared to DMSO-treated counterpart",shorter
same,PD1 expression in infiltrating CD4 positive cells,PD1; infiltrating CD4 positive (T) cells,PD1 expression increases with the increased in IC50 value; also recorded: upregulate PD1 expression; also recorded: high levels of PD1 expression
same,PD1 expression in non-infiltrating CD4 positive cells,PD1; non-infiltrating CD4 positive cells,PD1 expression negatively correlates with niraparib IC50 value
same,threshold ratio (niraparib/DMSO) in tumour cell viability between sensitive and resistant cancers,[4],0.75
same,change / ratio (niraparib/DMSO) in tumour cell viability,[4]; sensitive vs resistant PDOs,"higher ratio (naraparib/DMSO) in tumour cell viability; also recorded: only pronounced in cancers that are sensitive to the PARP inhibitor, niraparib"
